Measurements reported in US11351224B2, “Pharmaceutical composition for preventing and treating transplant rejection” (IUCF-HYU (INDUSTRY-UNIVERSITY COOPERATION FOUNDATION …, priority 2015, dated 2022).

Assays:
[1] = test system: spleen cells activated by anti-CD3 and anti-CD28 antibodies; test: IL-2 expression inhibition in spleen cells activated by anti-CD3 and anti-CD28 antibodies (ELISA); assay type: cell-based, mouse; conditions: for IL-2 expression inhibitory efficiency compared to WT: 0.5, 1, 2 or 5 μM
Procedure: The spleen cells activated by anti-CD3 and anti-CD28 antibodies were treated with 1 μM of each of PBS, the dNP2-ctCTLA-4 fusion product and the TAT-ctCTLA-4 fusion product, and IL-2 expression inhibitory efficiency was measured by ELISA and shown in FIG. 5.
First, a 96-well plate was coated at a concentration of 0.1 μg/well with anti-CD3 (anti-mouse CD3) and anti-CD28 (anti-mouse CD28) monoclonal antibodies at 37° C. for 5 hours, spleen cells were isolated from 7-week-old C57BL/6, and the isolated spleen cells were suspended to be single cells. The spleen cells suspended through the process were seeded at 2.5×10^5 on each well coated with anti-CD3 (anti-mouse CD3) and anti-28 (anti-mouse CD28) monoclonal antibodies, and were treated with 1 μM PBS, the dNP2-ctCTLA-4 fusion product and the TAT-ctCTLA-4 fusion product, and then activated for 24 hours.
The spleen cells activated by the anti-CD3 and anti-CD28 antibodies were each treated with the dNP2-ctCTLA-4 fusion product and the dNP2-EGFP fusion product, and IL-2 expression inhibitory efficiency was measured by ELISA and shown in FIG. 6A. At this time, ELISA was conducted using the kit produced by Biolegend Corporation in accordance with the standard protocol provided by the manufacturer. In addition, spleen cells activated by PMA/ionomycin were treated with the dNP2-ctCTLA-4 fusion product and the dNP2-EGFP fusion product, and IL-2 expression inhibitory efficiency was measured by ELISA and is shown in FIG. 6B.
At this time, the activated spleen cells were activated with the anti-CD3/CD28 antibody or PMA/ionomycin in the presence of 1 μM PBS, the dNP2-ctCTLA-4 fusion product or dNP2-EGFP fusion product for 24 hours.
The spleen cells activated by the anti-CD3 and anti-CD28 antibodies were each treated with 0.5, 1, 2 or 5 μM WT, 1YF, 2YF and DYF, and IL-2 expression inhibitory abilities were measured by ELISA and are shown in FIG. 8.
At this time, the activated spleen cells were activated with anti-CD3/CD28 antibody in the presence of 1 μM PBS, 0.5, 1, 2 or 5 μM WT, 1YF, 2YF, DYF for 24 hours.
The spleen cells activated by anti-CD3 and anti-CD28 antibodies were each treated with 0.1, 0.5, 1, 2 or 5 μM dNP2-TAMRA fusion product, dNP2-CTLA-4 fusion product and dNP2-ctCTLA-4-fm3 fusion product, and IL-2 expression inhibitory efficiency was measured by ELISA and is shown in FIG. 11. At this time, the activated spleen cells were activated with the anti-CD3/CD28 antibody in the presence of 1 μM PBS, 0.1, 0.5, 1, 2 or 5 μM dNP2-TAMRA fusion product, dNP2-CTLA-4 fusion product and dNP2-ctCTLA-4-fm3 fusion product for 24 hours.

[2] = test system: primary mouse CD4-T-cells; test: Intracellular transfer efficiency of ctCTLA-4 peptide and CPP-ctCTLA-4 fusion products in mouse spleen cells; assay type: cell-based; conditions: 1 μM, one hour, anti-HA staining
Procedure: Jurkat T-cells were cultured at a density of 5.0×10^5 cells/well on a 24-well plate in RPMI 1640 medium. After the cells were seeded, respective proteins were added at designated times. After culturing, the cells were collected and washed three times with phosphate buffered saline (PBS). Intracellular fluorescence was analyzed with a fluorescence-activated cell sorting (FACS) Canto II flow cytometer (BD Bioscience) and data were analyzed using FlowJo software (Tree Star, INC.). The spleen isolated from the 6-week-old C57BL/6 mice were loaded on a 60 mm×15 mm cell culture dish containing 3 ml of PBS. A single cell suspension was physically prepared using a cell strainer having pores with a size of […], 10 ml of fresh PBS was added thereto and the resulting mixture was centrifuged. […]
Specifically, the transfer efficiency was measured using “3) In vitro transfer efficiency” in the test method, which will be briefly described below.
Mouse spleen cells were cultured together with 1 μM of a ctCTLA-4 peptide, or a dNP2-ctCTLA-4 or Hph-1-ctCTLA-4 fusion product for one hour, and the ctCTLA-4 peptide or CPP-linked ctCTLA-4 fusion products, which had been transferred into cells, were stained with anti-HA antibodies. […] The cells were harvested and intracellular fluorescence was measured using a flow cytometer to measure ctCTLA-4 protein introduction efficiency in primary mouse CD4-T-cells.

[3] = test system: CD4 T-cells; test: Inhibition of CD4 T-cell activation (CD25 expression) in mouse spleen cells (FACS); assay type: cell-based
Procedure: The present test was conducted to check whether or not the dNP2-TAMRA, dNP2-ctCTLA-4 fusion product and dNP2-ctCTLA-4-fm3 fusion product according to the present invention could inhibit activation of CD4 T-cells in the mouse model. At this time, CD25 was an activation marker which has an increasing expression level when T-cells were activated, and whether or not activation of CD4 T-cells was inhibited based on the amount of expressed CD25 was determined. Specifically, the test method was as follows.
A 96-well plate was coated with 0.1 μg of anti-CD3 and anti-CD28 antibodies in a cell incubator at 37° C. under […] for 5 hours. Then, isolated spleen cells of mice were seeded in a density of 2.5×10^5 on each well. The cells were treated with PBS or 0.1, 0.5, 1, 2 or 5 μM dNP2-TAMRA, dNP2-ctCTLA-4 or dNP2-ctCTLA-4-Fm, and then cultured in a cell incubator at 37° C. under […] for 24 hours. Then, the cells were stained with APC fluorescence-conjugated anti-CD4 mAb and PE fluorescence-fused anti-CD25 mAb at 4° C. for 20 minutes. Then, the cells produced through the aforementioned process were analyzed by a flow cytometer (FACS) to compare amounts of expressed CD25.

[4] = 0.1, 0.5, 1, 2 or 5 μM, 24 hours

Row | Substance | IL-2 expression inhibitory efficiency compared to WT ([1]; 24 hours) | IL-2 expression inhibitory effects of ctCTLA-4 fragment peptides [1] | also measured
1 | 1YF: ctCTLA-4 variant, Y residue of the 1Y part substituted by F (KMLKKRSPLTTGVFVKMPPTEPECEKQFQPYFIPIN; ctCTLA-4 1YF) | significant deterioration in IL-2 expression inhibitory efficiency |  | 
2 | 2YF: ctCTLA-4 variant, Y residue of the 2Y part substituted by F (KMLKKRSPLTTGVYVKMPPTEPECEKQFQPFFIPIN; ctCTLA-4 2YF) | significant deterioration in IL-2 expression inhibitory efficiency |  | 
3 | DYF: ctCTLA-4 variant, Y residues of both 1Y and 2Y parts substituted by F (KMLKKRSPLTTGVFVKMPPTEPECEKQFQPFFIPIN; ctCTLA-4 DYF) | significant deterioration in IL-2 expression inhibitory efficiency |  | 
4 | Hph-1-ctCTLA-4: fusion product of cell-penetrating peptide Hph-1 (Sequence ID No. 9) linked to the N-end of ctCTLA-4 peptide (YARVRRRGPRRKMLKKRSPLTTGVYVKMPPTEPECEKQFQPYFIPIN; Hph-1; ctCTLA-4) |  |  | intracellular transfer efficiency [2]: further improved
5 | ctCTLA-4-fm1: peptide fragment having an amino acid sequence represented by Sequence ID No. 2 (YVKMPPTEPE; ctCTLA-4 fm1) |  | excellent IL-2 expression inhibitory effects | 
6 | ctCTLA-4-fm2: peptide fragment having an amino acid sequence represented by Sequence ID No. 3 (YFIPIN; ctCTLA-4 fm2) |  | excellent IL-2 expression inhibitory effects | 
7 | ctCTLA-4-fm3: fusion peptide of Sequence ID No. 4, wherein Sequence ID No. 2 is combined with Sequence ID No. 3 (YVKMPPTEPEYFIPIN; ctCTLA-4 fm3) |  | excellent IL-2 expression inhibitory effects | 
8 | ctCTLA-4: peptide of Sequence ID No. 1, 188th to 213th amino acid of the CTLA-4 protein cytoplasmic domain (KMLKKRSPLTTGVYVKMPPTEPECEKQFQPYFIPIN; ctCTLA-4) |  |  | intracellular transfer efficiency [2]: excellent intracellular transfer efficiency
9 | dNP2-ctCTLA-4-fm3: fusion product of fusion peptide ctCTLA-4-fm3 (Sequence ID No. 4) and cell-penetrating peptide dNP2 (Sequence ID No. 8) (KIKKVKKKGRKGSKIKKVKKKGRKYVKMPPTEPEYFIPIN; dNP2; ctCTLA-4 fm3) |  |  | IL-2 expression inhibition [1, 4]: excellent inhibitory activity against IL-2 expression, comparable to the dNP2-ctCTLA-4 fusion protein; intracellular transfer efficiency (FIG. 10) ([3]; 0.1 μM): excellent intracellular transfer efficiency; CD25 expression in CD4 T-cells [3, 4]: efficacy similar thereto
